Experimental findings from patent US11040952B2, “Phthalazinone compound, method for preparation thereof, pharmaceutical composition thereof, and use thereof” (SHANGHAI INSTITUTE OF MATERIA MEDICA, CHINESE ACADEMY OF …, priority 2017, dated 2021) are described below.

Some results are limits rather than exact numbers.

Tested on in one series: not listed separately
Description: MTT assay for cytotoxicity. Conditions: human, HepG2.2.15 cells, half (50%) lethal concentration. The format is cell-based, Human. As for the experimental part:
(§1) Human hepatoblastoma cell line HepG2.2.15 stably transfected with full-length HBV (provided by Shanghai Institute of Materia Medica, Chinese Academy of Sciences)
(§2) HepG2.2.15 cells were cultured and passaged according to conventional methods. DMEM containing 10% (v/v) bovine serum and the selective antibiotic G418 was used as a medium, the cells were cultured in an incubator at 37° C. under 5% CO2 for 8 days (the medium was exchanged on the 4th day).
(§3) The test compounds were formulated with DMSO into a 40 mM stock solution, which was then prepared into a solution at the defined highest concentration using a DMEM medium containing 10% Hyclone™ Fetal Bovine Serum, followed by diluting the same; the positive drug was lamivudine, which was also prepared into a solution at the defined concentration with the DMEM medium containing 10% Hyclone™ Fetal Bovine Serum.
HepG2.2.15 cells were seeded at 5×10^3 cells/well in a 96-well plate, and cultured for eight days in the presence of the compounds according to the above method, and then 200 μl of the supernatant was taken out, followed by addition of the MTT solution. After 4 hours of culture, a lysate was added. After 12 hours of culture, the OD570 was measured on a microplate reader. By comparing with the absorbance of the control well, the percentage of viable cells was calculated, and CC50, the concentration required for the reduction of cell viability by 50%, was calculated.
As for `O=c1c2ccccc2c(-c2cccnc2)nn1Cc1ccc(Cl)cc1` [Compound I-2], the CC50 at 8 days is 98.7 µM.

Regarding `COCCNc1ccc(-c2nn(Cc3ccc(Cl)cc3)c(=O)c3ccccc23)c(F)n1` [IV-28], the CC50 at 8 days is 21.3 µM.

`COCc1ccc(-c2nn(Cc3ccc(Cl)cc3)c(=O)c3ccccc23)c(F)n1` [Compound I-32] showed a CC50 at 8 days above 100 µM.

Compound `CC(C)(C)Nc1ccc(-c2nn(Cc3ccc(C#N)cc3)c(=O)c3ccccc23)c(F)n1` [IV-12] yielded a CC50 at 8 days of 46.3 µM.

The compound `N#Cc1ccc(Cn2nc(-c3cc(Cl)c(NCC(O)CO)nc3F)c3ccccc3c2=O)cc1` (stereo not drawn) [IV-80] registered a CC50 at 8 days above 100 µM.

As for `COCNc1ccc(-c2nn(Cc3ccc(Cl)cc3)c(=O)c3ccccc23)c(F)n1` [Compound I-15], the CC50 at 8 days was above 100 µM.

In turn, `CCOCCCNc1ccc(-c2nn(Cc3ccc(C#N)cc3)c(=O)c3ccccc23)c(F)n1` [IV-43] returned a CC50 at 8 days of 89.8 µM.

The compound `Cc1ncccc1-c1nn(Cc2ccc(Cl)cc2)c(=O)c2ccccc12` [Compound I-7] gave a CC50 at 8 days of 48.9 µM.

Regarding `Nc1ncc(-c2nn(Cc3ccc(Cl)cc3)c(=O)c3ccccc23)cn1` [II-1], the CC50 at 8 days came to 41.5 µM.

In turn, `COCCCNc1nc(F)c(-c2nn(Cc3ccc(C#N)cc3)c(=O)c3ccccc23)cc1Cl` [IV-33] returned a CC50 at 8 days of 181 µM.

Compound `Nc1ccc(-c2nn(Cc3ccc(Cl)cc3)c(=O)c3ccccc23)cn1` [Compound I-5] gave a CC50 at 8 days of 51.8 µM.

The compound `CC(=O)Nc1ccc(-c2nn(Cc3ccc(C#N)cc3)c(=O)c3ccccc23)c(F)n1` [IV-10] yielded a half-maximal cytotoxic concentration (CC50) at 8 days of 47.9 µM. The CC50 at 8 days values of the last two compounds are within 1.5-fold of each other.

`N#Cc1ccc(Cn2nc(-c3cc(Cl)c(NCCOCC(=O)O)nc3F)c3ccccc3c2=O)cc1` [IV-60] yielded a CC50 at 8 days above 100 µM.

`N#Cc1ccc(Cn2nc(-c3cc(Cl)c(NCCCO)nc3F)c3ccccc3c2=O)cc1` [IV-67] registered a CC50 at 8 days above 100 µM.

For `N#Cc1ccc(Cn2nc(-c3cc(O)cnc3F)c3ccccc3c2=O)cc1` [Compound I-43], the CC50 at 8 days was above 100 µM.

For the compound `O=c1c2ccccc2c(-c2ccc(NC3CC3)nc2F)nn1Cc1ccc(Cl)cc1` [Compound I-16], it took 20.1 µM to reach half-maximal cytotoxicity (CC50 at 8 days).

As for `CC(C)(C)OC(=O)NCCCCNc1nc(F)c(-c2nn(Cc3ccc(C#N)cc3)c(=O)c3ccccc23)cc1Cl` [IV-46], the CC50 at 8 days is above 100 µM.

As for `O=c1c2ccccc2c(-c2ccc(CN3CCOCC3)nc2F)nn1Cc1ccc(Cl)cc1` [Compound I-29], the CC50 at 8 days is above 100 µM.

In turn, `N#Cc1ccc(Cn2nc(-c3cc(Cl)c(N)nc3F)c3ccccc3c2=O)cc1` [IV-30] came in with a CC50 at 8 days of 10.2 µM.

For `[2H]C([2H])([2H])OC([2H])([2H])c1ccc(-c2nn(Cc3ccc(Cl)cc3)c(=O)c3ccccc23)c(F)n1` [Compound I-36], the CC50 at 8 days is 89 µM.

Turning to `N#Cc1ccc(Cn2nc(-c3cc(Cl)c(NCCCCO)nc3F)c3ccccc3c2=O)cc1` [IV-69], it took 25 µM to reach half-maximal cytotoxicity (CC50 at 8 days).

The subject of another series is HBV. The series can be described thus: HBV DNA content in the supernatant of cell culture (real-time PCR). Type of series: cell-based, hepatitis B virus (HBV). Conditions: Hepatitis B virus, HepG2.2.15, 192 h, inhibition of HBV DNA replication, HepG2.2.15 supernatant, 8 days. As for the experimental part: as §1, §2, §3
HepG2.2.15 cells were treated with compounds at different concentrations for 8 days (the medium was exchanged on the 4th day), and the supernatant was aspirated, and the HBV DNA contained in the mature virus particles in the supernatant was quantitated by using a real-time PCR method.
1) The supernatant DNA from a 96-well plate, 200 μl/well, was collected, wherein the contents in the duplicate wells were collected into a same EP tube, and centrifuged at 4000 rcf for 5 min, and the supernatant was collected;
2) 200 μl of the supernatant was added into a 1.5 ml EP tube, added with 20 μl of proteinase K and 200 μl of Buffer AL (Qiagen, DNeasy® Blood & Tissue Kit), vortexed to be mixed thoroughly, and incubated at 56° C. for 10 min;
3) 200 μl of ethanol was added and vortexed to be mixed thoroughly;
4) all the liquid obtained from step 3) was added into a DNeasy Mini spin column (Qiagen, DNeasy® Blood & Tissue Kit) placed in a 2 ml waste liquid collection tube, and centrifuged at 6000 rcf for 1 min, and the supernatant was discarded;
5) the DNeasy Mini spin column was placed in a new 2 ml waste liquid collection tube, added with 500 μl of Buffer AW1 (Qiagen, DNeasy® Blood & Tissue Kit), and centrifuged at 6000 rcf for 1 min, and the supernatant was discarded;
6) the DNeasy Mini spin column was placed in a new 2 ml waste liquid collection tube, added with 500 μl of Buffer AW2, (Qiagen, DNeasy® Blood & Tissue Kit), and centrifuged at 20000 rcf for 3 min, and the supernatant was discarded;
7) the DNeasy Mini spin column was placed in anew 1.5 ml EP tube, 50 μl of Buffer AE (Qiagen, DNeasy® Blood & Tissue Kit) was pipetted and directly applied onto the membrane of the DNeasy Mini spin column, which was then left at room temperature for 5 min, and centrifuged at 6000 rcf for 1 min to elute the DNA from the membrane, the DNeasy Mini spin column was discarded, and the DNA sample was collected and stored at −20° C.
1) Standard curve: 1e^7-1e^4 IU/ml, the sample amount was 1 μl, a blank well was set so as to check whether the reaction system is polluted or not;
2) 1 μl of a DNA sample was added in sequence;
3) Addition of enzyme and reaction buffer: two tubes of the reaction solution were first added into the enzyme, mixed well and centrifuged slightly, placed on ice, added with the sample, followed by addition of 19 μl of the enzyme reaction solution, wherein, during the addition, the DNA sample should be sure of not being touched to cause contamination;
4) the sample was sealed with a sealing film and centrifuged;
Stage 2: 10 cycles • Step 1: 93° C., 45 s • Step 2: 55° C., 1 min Stage 3: 45 cycles • Step 1: 93° C., 30 s • Step 2: 55° C., 45 s
Detection: data were collected after completing the step 2 (55° C., 45 s) of the stage 3.
The experimental data were processed by using the Origin software and IC50 was calculated.
(In general: Real-time PCR tracks product formation cycle by cycle.)
Take `O=c1c2ccccc2c(-c2cccnc2)nn1Cc1ccc(Cl)cc1` [Compound I-2]: 3100 nM corresponded to half-maximal inhibition (IC50).

For the compound `COCCNc1ccc(-c2nn(Cc3ccc(Cl)cc3)c(=O)c3ccccc23)c(F)n1` [IV-28], half-maximal inhibition (IC50) required 191 nM.

In the case of `COCc1ccc(-c2nn(Cc3ccc(Cl)cc3)c(=O)c3ccccc23)c(F)n1` [Compound I-32], it took 1000 nM to reach half-maximal inhibition (IC50). This IC50 lies about 5.2-fold higher than the previous one.

`CC(C)(C)Nc1ccc(-c2nn(Cc3ccc(C#N)cc3)c(=O)c3ccccc23)c(F)n1` [IV-12]: the IC50 worked out at 3700 nM.

Take `N#Cc1ccc(Cn2nc(-c3cc(Cl)c(NCC(O)CO)nc3F)c3ccccc3c2=O)cc1` (stereo not drawn) [IV-80]: the IC50 is below 98 nM.

The compound `COCNc1ccc(-c2nn(Cc3ccc(Cl)cc3)c(=O)c3ccccc23)c(F)n1` [Compound I-15] came in with an IC50 of 6200 nM. This counts as single-digit micromolar.

Turning to `CCOCCCNc1ccc(-c2nn(Cc3ccc(C#N)cc3)c(=O)c3ccccc23)c(F)n1` [IV-43], the IC50 came to 288 nM. This IC50 lies about 22-fold lower than the previous one.

For the compound `Cc1ncccc1-c1nn(Cc2ccc(Cl)cc2)c(=O)c2ccccc12` [Compound I-7], the IC50 turned out to be 3800 nM.

`Nc1ncc(-c2nn(Cc3ccc(Cl)cc3)c(=O)c3ccccc23)cn1` [II-1] returned an IC50 of 3800 nM.

In turn, `COCCCNc1nc(F)c(-c2nn(Cc3ccc(C#N)cc3)c(=O)c3ccccc23)cc1Cl` [IV-33] yielded an IC50 below 97.7 nM.

`Nc1ccc(-c2nn(Cc3ccc(Cl)cc3)c(=O)c3ccccc23)cn1` [Compound I-5] yielded a 50% inhibitory concentration (IC50) of 1500 nM.

On to `CC(=O)Nc1ccc(-c2nn(Cc3ccc(C#N)cc3)c(=O)c3ccccc23)c(F)n1` [IV-10], for which the IC50 came out at 1700 nM.

The compound `N#Cc1ccc(Cn2nc(-c3cc(Cl)c(NCCOCC(=O)O)nc3F)c3ccccc3c2=O)cc1` [IV-60] showed an IC50 of 766 nM.

Take `N#Cc1ccc(Cn2nc(-c3cc(Cl)c(NCCCO)nc3F)c3ccccc3c2=O)cc1` [IV-67]: the midpoint of inhibition, the IC50, lay at 4.2 nM. Compared with the last compound, the IC50 is about 180-fold lower.

In turn, `N#Cc1ccc(Cn2nc(-c3cc(O)cnc3F)c3ccccc3c2=O)cc1` [Compound I-43] displayed an IC50 of 1570 nM.

As to `O=c1c2ccccc2c(-c2ccc(NC3CC3)nc2F)nn1Cc1ccc(Cl)cc1` [Compound I-16], half-maximal inhibition (IC50) required 500 nM.

In turn, `CC(C)(C)OC(=O)NCCCCNc1nc(F)c(-c2nn(Cc3ccc(C#N)cc3)c(=O)c3ccccc23)cc1Cl` [IV-46] showed a 50% inhibitory concentration (IC50) of 14 nM.

`O=c1c2ccccc2c(-c2ccc(CN3CCOCC3)nc2F)nn1Cc1ccc(Cl)cc1` [Compound I-29] registered an IC50 of 4600 nM. This IC50 is about 330-fold higher than that of the compound before.

In turn, `N#Cc1ccc(Cn2nc(-c3cc(Cl)c(N)nc3F)c3ccccc3c2=O)cc1` [IV-30] displayed a half-inhibitory concentration (IC50) below 97.7 nM.

As to `[2H]C([2H])([2H])OC([2H])([2H])c1ccc(-c2nn(Cc3ccc(Cl)cc3)c(=O)c3ccccc23)c(F)n1` [Compound I-36], the IC50 stood at 1500 nM.

`N#Cc1ccc(Cn2nc(-c3cc(Cl)c(NCCCCO)nc3F)c3ccccc3c2=O)cc1` [IV-69] yielded an IC50 of 8.1 nM.

Broadly, the CC50 is the concentration at which the toxic effect on the cells reaches its halfway point. Broadly, the IC50 is the point on the concentration scale where inhibition reaches its midpoint.
